From patent US20140357512A1, “HISTONE DEACETYLASE (HDAC) BIOMARKERS IN MULTIPLE MYELOMA” (priority 2013, published 2014)

Test system: human myeloma cell line MM.1S
Test: SILAC acetylated-lysine peptide profiling, HDAC inhibitor vs DMSO (light/heavy ratio)
Format: cell-based
Text: An embodiment of the invention comprises utilizing the SILAC method in order to quantitate changes in protein expression between two or more populations of cells. The SILAC method is a technique based on mass spectrometry that detects differences in protein abundance among samples using non-radioactive isotopic labeling. The SILAC method is known in the art, and described in detail in Ong et al., “Stable Isotope Labeling by Amino Acids in Cell Culture, SILAC, as a Simple and Accurate Approach to Expression Proteomics”, Molecular & Cellular Proteomics, vol. 1, pp. 376-386 (2002), which is incorporated herein by reference in its entirety.
Briefly, the SILAC method involves growing two populations of cells in cell culture. The first population of cells is grown in growth media containing normal amino acids (“normal media”). The second population of cells is grown in media lacking a standard essential amino acid (such as lysine), but is then supplemented with a non-radioactive, isotopically labeled form of that essential amino acid (such as lysine labeled with ^13C atoms, rather than normal ^12C atoms), which is called “heavy media”. When the two populations of cells are each growing in the medium, they incorporate the amino acids into all of their proteins. The growth of cells maintained in the heavy media is no different from that in normal media. All peptides containing the heavy amino acids are heavier than their normal counterparts. The cells from each of the two populations of cells are lysed. The lysates from each of the two cell populations are then combined. The combined cell lysates are then analyzed by mass spectrometry. Pairs of chemically identical peptides of different stable isotope composition can be differentiated in a mass spectrometer due to their difference in mass. The ratio of peak intensities in the mass spectrum for such peptide pairs reflects the abundance ratio for the two proteins.
This example describes SILAC studies that were performed to compare the effects of three different HDAC inhibitors (Compound A, Compound B, and tubastatin A) to a control on a human multiple myeloma cell line. The HDAC inhibitors were also compared amongst themselves to determine differences in their effects.
A human myeloma cell line MM.1S was grown using either ^12C (light) or ^13C (heavy) lysine containing culture medium. The “heavy” cells were treated with DMSO as the control, and the “light” cells were treated with a single HDAC inhibitor at 37° C. for 6 hours. The heavy and light cells were lysed, and the lysates were mixed in 1:1 ratio and digested with the protease trypsin. The acetylated lysine containing peptides (due to the action of the HDAC inhibitor) in the digested peptide pool were captured by a non-specific anti-acetylated lysine antibody cocktail (the antibodies identify both light and heavy acetylated peptides), and subjected to mass spectrometry analysis in order to identify thousands of individual peptides.
Thousands of peptides were identified in pairs (^12C and ^13C) due to their known mass differences. The amino acid sequence and quantitative ratio (Light/Heavy) of a given peptide in two differentially treated cell lysates were then determined and annotated with their possible protein (gene) sources.
As stated above, three HDAC inhibitors (Compound A, Compound B, and Tubastatin A) were used. Thus, the SILAC method was performed three times, with a different HDAC inhibitor compared to a control each time. Accordingly, there are three pairs of quantitative data in the table below, i.e., Compound A:DMSO, Compound B:DMSO, and Tubastatin A:DMSO. A cut-off of 1.30 fold of change (increase or decrease) was then used to determine “changed” or “+” in the table, and any peptides with a fold of change less than 1.3 fold were determined to be “unchanged” or “0” in the table. Those peptides that were not identified were marked as “NA” in the table. […]

With O=C(NO)c1cnc(NC2(c3cccc(F)c3)CCCCC2)nc1 [Compound B, 2-((1-(3-fluorophenyl)cyclohexyl)amino)-N-hydroxypyrimidine-5-carboxamide] the “light to heavy ratio (L/H ratio) of acetylated peptide, log 2 scale” value (NK(ac)[…] (SEQ ID NO: 237), Vesicle-associated membrane protein 8 [47], VAMP8) was 0.00, the “light to heavy ratio (L/H ratio) of acetylated peptide, log 2 scale” value (NLDK(ac)[…] (SEQ ID NO: 159), Aspartate aminotransferase mitochondrial [94], GOT2) was 0.00 and the “L/H ratio of acetylated peptide” value (NLK(ac)NEITK (SEQ ID NO: 380), Isoform 1 of Coatomer subunit alpha [441], COPA) was 0.40 log 2. For the same molecule, the “L/H ratio of acetylated peptide” value (NLPFSVENK(ac)WSLLAK (SEQ ID NO: 382), Cytochrome c oxidase subunit 7C mitochondrial [34], COX7C) was −0.87 log 2, the “L/H ratio of acetylated peptide ADKDYHFK(ac)[…] (SEQ ID NO: 61)” value (NPM1 [32], log 2 scale, drug vs DMSO) was 0.00 and the “L/H ratio of acetylated peptide GVTQFGNK(ac)[…] (SEQ ID NO: 18)” value (NUDT21 [23], log 2 scale, drug vs DMSO) was 0.50. The “L/H ratio of acetylated peptide” value (NVQQTVSAK(ac)GPPEK(ac)R (SEQ ID NO: 416), Mediator of RNA polymerase II transcription subunit 6 [243:248], MED6) was 0.49 log 2, the “L/H ratio of acetylated peptide” value (NVYK(ac)FELDTSER (SEQ ID NO: 444), Dolichyl-diphosphooligosaccharide--protein glycosyltransferase subunit 2 [460], RPN2) was 0.54 log 2 and the “light to heavy ratio (L/H ratio) of acetylated peptide FCLSK(ac)PGVYK (SEQ ID NO: 345)” value (Nodal modulator 1 [630], NOMO3, NOMO1, drug:DMSO) was 0.59 log 2. For the same molecule, the “light to heavy ratio (L/H ratio) of acetylated peptide […](ac)R (SEQ ID NO: 532)” value (Nucleosome assembly protein 1-like 1 [116], gene NAP1L1, inhibitor:DMSO) was 0.00 log 2, the “L/H ratio of acetylated peptide PSHLTNK(ac)FEDK (SEQ ID NO: 65)” value (PDIA3 [214], log 2 scale, drug vs DMSO) was 0.00 and the “L/H ratio of acetylated peptide GEK(ac)FVMQEEFSR (SEQ ID NO: 64)” value (PDIA3 [335], log 2 scale, drug vs DMSO) was 0.00. For the same molecule, the “L/H ratio of acetylated peptide SLLGK(ac)DVLFLK (SEQ ID NO: 67)” value (PGK1 [91], log 2 scale, drug vs DMSO) was 0.00, the “L/H ratio of acetylated peptide SIYGEK(ac)FEDENFILK (SEQ ID NO: 68)” value (PPIA [82], log 2 scale, drug vs DMSO) was 0.00 and the “L/H ratio of acetylated peptide VIFGLFGK(ac)TVPK (SEQ ID NO: 70)” value (PPIB [67], log 2 scale, drug vs DMSO) was 0.00. For the same molecule, the “L/H ratio of acetylated peptide TVPK(ac)[…] (SEQ ID NO: 69)” value (PPIB [71], log 2 scale, drug vs DMSO) was 0.00, the “L/H ratio of acetylated peptide VIK(ac)[…] (SEQ ID NO: 71)” value (PPIB [98], log 2 scale, drug vs DMSO) was 0.00 and the “L/H ratio of acetylated peptide IYGFYDECK(ac)R (SEQ ID NO: 72)” value (PPP1CC [141], log 2 scale, drug vs DMSO) was 0.00. The “light to heavy ratio (L/H ratio) of acetylated peptide TAWLDGK(ac)HVVFGK (SEQ ID NO: 592)” value (Peptidyl-prolyl cis-trans isomerase B [165], gene PPIB, inhibitor:DMSO) was 0.00 log 2, the “light to heavy ratio (L/H ratio) of acetylated peptide FPDENFK(ac)LK (SEQ ID NO: 347)” value (Peptidyl-prolyl cis-trans isomerase C [123], PPIC, drug:DMSO) was −1.00 log 2 and the “light to heavy ratio (L/H ratio) of acetylated peptide HVVFGK(ac)VK (SEQ ID NO: 576)” value (Peptidylprolyl isomerase A (Cyclophilin A) (PPIA) pseudogene [141], gene PPIAP26, inhibitor:DMSO) was 0.00 log 2. For the same molecule, the “light to heavy ratio (L/H ratio) of acetylated peptide LAK(ac)YFFNK (SEQ ID NO: 604)” value (Periodic tryptophan protein 2 homolog [279], gene PWP2, inhibitor:DMSO) was 0.00 log 2, the “light to heavy ratio (L/H ratio) of acetylated peptide […](ac)DELKK (SEQ ID NO: 346)” value (Poly [ADP-ribose] polymerase 1 [249], PARP1, drug:DMSO) was 0.83 log 2 and the “light to heavy ratio (L/H ratio) of acetylated peptide FVVEK(ac)AEQQK (SEQ ID NO: 263)” value (Prohibitin [202], PHB, drug:DMSO) was 0.00 log 2. For the same molecule, the “light to heavy ratio (L/H ratio) of acetylated peptide FEYK(ac)YSFK (SEQ ID NO: 340)” value (Protein ERGIC-53 [49], LMAN1, drug:DMSO) was −0.52 log 2, the “light to heavy ratio (L/H ratio) of acetylated peptide HFAFK(ac)[…] (SEQ ID NO: 554)” value (Protein FAM3C [72], gene FAM3C, inhibitor:DMSO) was 0.00 log 2 and the “light to heavy ratio (L/H ratio) of acetylated peptide GYPTIK(ac)FFR (SEQ ID NO: 541)” value (Protein disulfide-isomerase [103], gene P4HB, inhibitor:DMSO) was 0.00 log 2. For the same molecule, the “light to heavy ratio (L/H ratio) of acetylated peptide THILLFLPK(ac)SVSDYDGK (SEQ ID NO: 297)” value (Protein disulfide-isomerase [263], P4HB, drug:DMSO) was 0.00 log 2, the “light to heavy ratio (L/H ratio) of acetylated peptide VLVGK(ac)[…] (SEQ ID NO: 303)” value (Protein disulfide-isomerase [375], P4HB, drug:DMSO) was 0.00 log 2 and the “light to heavy ratio (L/H ratio) of acetylated peptide […](ac)K (SEQ ID NO: 286)” value (Protein disulfide-isomerase [385], P4HB, drug:DMSO) was 0.00 log 2. The “light to heavy ratio (L/H ratio), log 2 scale, acetylated peptide VYK(ac)EMYK (SEQ ID NO: 777)” value (Putative annexin A2-like protein [148], gene ANXA2P2, drug:DMSO) was 0.00 and the “light to heavy ratio (L/H ratio), log 2 scale, acetylated peptide SVPHLQK(ac)VFDR (SEQ ID NO: 776)” value (Putative annexin A2-like protein [227], gene ANXA2P2, drug:DMSO) was 0.00.
